Literature values in US11337932B2, “Transdermal therapeutic system containing asenapine and polysiloxane or polyisobutylene” (LTS LOHMANN Therapie-Systeme AG, priority 2016, dated 2022).

Experiments:
[1] = if ingested
[2] = biological target: serotonin 5-HT2A receptors (Homo sapiens, UniProt P28223); settings: background statement; antagonist at dopamine D2 and serotonin 5-HT2A receptors
Chain of serotonin 5-HT2A receptors (P28223 whole entry): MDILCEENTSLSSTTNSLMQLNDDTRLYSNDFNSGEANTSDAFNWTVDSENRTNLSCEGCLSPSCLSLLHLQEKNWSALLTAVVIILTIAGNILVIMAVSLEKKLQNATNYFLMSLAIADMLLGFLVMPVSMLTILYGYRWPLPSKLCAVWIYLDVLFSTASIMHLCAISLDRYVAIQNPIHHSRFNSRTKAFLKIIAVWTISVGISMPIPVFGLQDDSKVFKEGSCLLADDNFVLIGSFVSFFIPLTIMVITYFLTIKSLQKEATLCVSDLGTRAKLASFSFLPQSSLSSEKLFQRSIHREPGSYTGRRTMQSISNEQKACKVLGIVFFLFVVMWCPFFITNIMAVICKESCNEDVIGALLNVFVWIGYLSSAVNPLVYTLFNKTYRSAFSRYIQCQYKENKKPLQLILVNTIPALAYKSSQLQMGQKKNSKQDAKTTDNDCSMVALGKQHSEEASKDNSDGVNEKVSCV

In the case of CN1C[C@H]2c3ccccc3Oc3ccc(Cl)cc3[C@@H]2C1 (relative stereo) [asenapine, (3aRS,12bRS)-rel-5-chloro-2,3,3a,12b-tetrahydro-2-methyl-1H-dibenz[2,3:6,7]oxepino[4,5-c]pyrrole], the bioavailability [1] is given as under 2% and the affinity [2] is given as “high affinity”.
